Experimental data published in US12187727B2, “Methods for antagonizing a melanocortin 4 receptor” (Pfizer Inc., priority 2020, dated 2025).
Where two headings read alike, the source gives them in different places.

Biological target: human Melanocortin-4 receptor (MC4R) (Homo sapiens (Human), UniProt P32245)
Assay: Functional in vitro MC4R antagonist potency assay (cAMP HTRF in CHO cells)
Format: cell-based
Method: Example BB. Functional In Vitro MC4R Antagonist Potency Assay
The functional in vitro antagonist potency for test compounds was determined by monitoring intracellular cyclic adenosine monophosphate (cAMP) levels in Chinese hamster ovary (CHO—) cells stably expressing the human Melanocortin-4 receptor (MC4R). Following agonist activation, human MC4R associates with the G-protein complex causing the Gα subunit to exchange bound GDP for GTP, followed by dissociation of the Ga-GTP complex. The activated Gα subunit can couple to downstream effectors to regulate the levels of second messengers or cAMP within the cell. Thereby, determination of intracellular cAMP levels allows for pharmacological characterization. Intracellular cAMP levels are quantitated using a homogenous assay utilizing the Homogeneous Time-Resolved Fluorescence (HTRF) technology from CisBio. The method is a competitive immunoassay between native cAMP produced by cells and the cAMP labelled with the acceptor dye, d2. The two entities then compete for binding to a monoclonal anti-cAMP antibody labeled with cryptate. The specific signal is inversely proportional to the concentration of cAMP in the cells.
Test compounds were solubilized to 30 mM in 100% dimethyl sulfoxide (DMSO) and stored. […] The final compound concentration range in the assay was 400 nM to […], with a final DMSO concentration of 0.1%.
(95% O2: 5% CO2) overnight, with micro-clime lids (Labcyte, Cat No. LLS-0310). […] Cells were incubated with compound for 30 minutes at 37° C. (95% O2: 5% CO2) before addition of 5 μL EC80, agonist stimulation (200 nM α-melanocyte stimulating hormone, aMSH, Bachem) and another 30-minute incubation at 37° C. (95% O2: 5% CO2). Intracellular cAMP levels were quantified as per Cisbio's protocol (5 uL of D2 and then 5 uL Cryptate, incubated for 1-2 hours at room temperature).
Data expressed as nM cAMP were then normalized to control wells using Activity Base (IDBS). Zero percent effect (ZPE) was defined as nM of cAMP generated from ECK, agonist stimulation (200 nM aMSH). In the absence of an antagonist control compound, one hundred percent effect (HPE) was defined as nM of cAMP generated from assay buffer/vehicle only.

[1] = read-out: Kb (nM) Antagonist geometric mean
[2] = human MC4R in CHO cells, cAMP HTRF, 200 nM aMSH challenge, Kb from IC50 by Leff-Dougall equation, geometric mean, read-out: Kb (nM) Antagonist geometric

human Melanocortin-4 receptor (MC4R), sequence (P32245 whole entry): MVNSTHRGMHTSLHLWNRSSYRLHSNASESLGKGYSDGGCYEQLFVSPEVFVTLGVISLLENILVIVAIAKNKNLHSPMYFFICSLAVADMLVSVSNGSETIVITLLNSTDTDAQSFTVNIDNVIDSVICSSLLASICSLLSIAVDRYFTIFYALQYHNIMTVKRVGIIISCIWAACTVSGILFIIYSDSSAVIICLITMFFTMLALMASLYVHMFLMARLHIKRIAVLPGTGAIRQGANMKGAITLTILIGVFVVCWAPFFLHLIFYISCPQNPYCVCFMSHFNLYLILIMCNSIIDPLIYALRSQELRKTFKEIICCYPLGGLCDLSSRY

**Q.** COc1cnc(-c2cc3c(nc2C)N[C@@]2(CC3)CCN(C(=O)[C@H](C)c3cc(OC)ncc3F)C2)nc1 [Example 67, (2R)-2-(5-fluoro-2-methoxypyridin-4-yl)-1-[(2S)-6-(5-methoxypyrimidin-2-yl)-7-methyl-3,4-dihydro-1H-spiro[1,8-naphthyridine-2,3′-pyrrolidin]-1′-yl]propan-1-one] was tested. Which Kb [1] did it give?
**A.** 14 nM

**Q.** Which Kb [1] does the source give for Cc1nc2c(cc1-c1ncccn1)CC[C@@]1(CCN(C(=O)Cc3ccc(C(F)(F)F)cc3)C1)N2 [Example 73, 1-[(2S)-7-methyl-6-(pyrimidin-2-yl)-3,4-dihydro-1H-spiro[1,8-naphthyridine-2,3′-pyrrolidin]-1yl]-2-[4-(trifluoromethyl)phenyl]ethan-1-one] here?
**A.** 17 nM

**Q.** Which Kb [1] does the source give for [2H]C([2H])([2H])Oc1cc([C@@H](C)C(=O)N2CC[C@@]3(CCc4cc(-c5ncccn5)c(C)nc4N3)C2)c(F)cn1 [Example 74, (2R)-2-{5-fluoro-2-[(^2H3)methyloxy]pyridin-4-yl}-1-[(2S)-7-methyl-6-(pyrimidin-2-yl)-3,4-dihydro-1H-spiro[1,8-naphthyridine-2,3′-pyrrolidin]-1′-yl]propan-1-one] here?
**A.** 0.6 nM

**Q.** How did the Kb [2] turn out when COc1cc([C@@H](C)C(=O)N2CC[C@]3(CCc4cc(-c5nnn(C)n5)c(C)nc4N3)C2)c(F)cn1 [Example 116, (2R)-2-(5-fluoro-2-methoxypyridin-4-yl)-1-[(2R)-7-methyl-6-(2-methyl-2H-tetrazol-5-yl)-3,4-dihydro-1H-spiro[1,8-naphthyridine-2,3′-pyrrolidin]-1′-yl]propan-1-one] was run?
**A.** 1.7 nM

**Q.** With COc1cc([C@@H](C)C(=O)N2CC[C@@]3(CCc4cc(-c5nc6ccccn6n5)c(C)nc4N3)C2)c(Cl)cn1 [Example 117, (2R)-2-(5-chloro-2-methoxypyridin-4-yl)-1-[(2S)-7-methyl-6-([1,2,4]triazolo[1,5-a]pyridin-2-yl)-3,4-dihydro-1H-spiro[1,8-naphthyridine-2,3′-pyrrolidin]-1′-yl]propan-1-one] as the compound, how does the Kb [2] read?
**A.** 0.07 nM

**Q.** For COc1cc([C@@H](C)C(=O)N2CC[C@@]3(CCc4cc(-c5cnn(C)n5)c(C)nc4N3)C2)c(F)cn1 [Example 118, (2R)-2-(5-fluoro-2-methoxypyridin-4-yl)-1-[(2S)-7-methyl-6-(2-methyl-2H-1,2,3-triazol-4-yl)-3,4-dihydro-1H-spiro[1,8-naphthyridine-2,3′-pyrrolidin]-1′-yl]propan-1-one], which Kb [2] is on record?
**A.** 0.93 nM

**Q.** Which Kb [2] does the source give for COc1cc([C@@H](C)C(=O)N2CC[C@@]3(CCc4cc(-c5cnn(C)n5)c(C)nc4N3)C2)c(Cl)cn1 [Example 119, (2R)-2-(5-chloro-2-methoxypyridin-4-yl)-1-[(2S)-7-methyl-6-(2-methyl-2H-1,2,3-triazol-4-yl)-3,4-dihydro-1H-spiro[1,8-naphthyridine-2,3′-pyrrolidin]-1′-yl]propan-1-one] here?
**A.** > 1.1 nM

**Q.** How did the Kb [2] turn out when COc1cc([C@@H](C)C(=O)N2CC[C@@]3(CCc4cc(-c5nc(C(F)F)n(C)n5)c(C)nc4N3)C2)c(Cl)cn1 [Example 120, (2R)-2-(5-chloro-2-methoxypyridin-4-yl)-1-{(2S)-6-[5-(difluoromethyl)-1-methyl-1H-1,2,4-triazol-3-yl]-7-methyl-3,4-dihydro-1H-spiro[1,8-naphthyridine-2,3′-pyrrolidin]-1′-yl}propan-1-one] was run?
**A.** 0.08 nM

**Q.** Cc1nc2c(cc1-c1nc(C(F)F)n(C)n1)CC[C@@]1(CCN(C(=O)Cc3ccc(F)c(F)c3)C1)N2 [Example 121, 1-{(2S)-6-[5-(difluoromethyl)-1-methyl-1H-1,2,4-triazol-3-yl]-7-methyl-3,4-dihydro-1H-spiro[1,8-naphthyridine-2,3′-pyrrolidin]-1′-yl}-2-(3,4-difluorophenyl)ethan-1-one] was tested. Which Kb [2] did it give?
**A.** 4 nM

**Q.** Which Kb [2] does the source give for COc1cc([C@@H](C)C(=O)N2CC[C@@]3(CCc4cc(-c5nc(C(F)F)n(C)n5)c(C)nc4N3)C2)c(F)cn1 [Example 122, (2R)-1-{(2S)-6-[5-(difluoromethyl)-1-methyl-1H-1,2,4-triazol-3-yl]-7-methyl-3,4-dihydro-1H-spiro[1,8-naphthyridine-2,3′-pyrrolidin]-1′-yl}-2-(5-fluoro-2-methoxypyridin-4-yl)propan-1-one] here?
**A.** 0.11 nM

**Q.** How did the Kb [2] turn out when COc1cc([C@@H](C)C(=O)N2CC[C@@]3(CCc4cc(C5CCOCC5)c(C)nc4N3)C2)c(F)cn1 [Example 131, (2R)-2-(5-fluoro-2-methoxypyridin-4-yl)-1-[(2S)-7-methyl-6-(oxan-4-yl)-3,4-dihydro-1H-spiro[1,8-naphthyridine-2,3′-pyrrolidin]-1′-yl]propan-1-one] was run?
**A.** 16 nM

**Q.** Which Kb [2] does the source give for COc1cc([C@@H](C)C(=O)N2CC[C@@]3(CCc4cc(-c5cn(C(F)F)c(C)n5)c(C)nc4N3)C2)c(F)cn1 [Example 138, (2R)-1-{(2S)-6-[1-(difluoromethyl)-2-methyl-1H-imidazol-4-yl]-7-methyl-3,4-dihydro-1H-spiro[1,8-naphthyridine-2,3′-pyrrolidin]-1′-yl}-2-(5-fluoro-2-methoxypyridin-4-yl)propan-1-one] here?
**A.** 0.44 nM

**Q.** With COc1cc([C@@H](C)C(=O)N2CC[C@@]3(CCc4cc(-c5ccc(F)cn5)c(C)nc4N3)C2)c(F)cn1 [Example 139, (2R)-2-(5-fluoro-2-methoxypyridin-4-yl)-1-[(2S)-6-(5-fluoropyridin-2-yl)-7-methyl-3,4-dihydro-1H-spiro[1,8-naphthyridine-2,3′-pyrrolidin]-1′-yl]propan-1-one] as the compound, how does the Kb [2] read?
**A.** 21 nM

**Q.** With COc1cc([C@@H](C)C(=O)N2CC[C@@]3(CCc4cc(-c5ccccn5)c(C)nc4N3)C2)c(F)cn1 [Example 140, (2R)-2-(5-fluoro-2-methoxypyridin-4-yl)-1-[(2S)-7-methyl-6-(pyridin-2-yl)-3,4-dihydro-1H-spiro[1,8-naphthyridine-2,3′-pyrrolidin]-1′-yl]propan-1-one] as the compound, how does the Kb [2] read?
**A.** 19 nM

**Q.** COc1cc([C@@H](C)C(=O)N2CC[C@@]3(CCc4cc(-c5ccnnc5)c(C)nc4N3)C2)c(F)cn1 [Example 141, (2R)-2-(5-fluoro-2-methoxypyridin-4-yl)-1-[(2S)-7-methyl-6-(pyridazin-4-yl)-3,4-dihydro-1H-spiro[1,8-naphthyridine-2,3′-pyrrolidin]-1′-yl]propan-1-one] was tested. Which Kb [2] did it give?
**A.** 29 nM

**Q.** How did the Kb [2] turn out when COc1cc([C@@H](C)C(=O)N2CC[C@@]3(CCc4cc(-c5nccc(C(F)(F)F)n5)c(C)nc4N3)C2)c(F)cn1 [Example 143, (2R)-2-(5-fluoro-2-methoxypyridin-4-yl)-1-{(2S)-7-methyl-6-[4-(trifluoromethyl)pyrimidin-2-yl]-3,4-dihydro-1H-spiro[1,8-naphthyridine-2,3′-pyrrolidin]-1′-yl}propan-1-one] was run?
**A.** 2.6 nM

**Q.** For COc1cc([C@@H](C)C(=O)N2CC[C@@]3(CCc4cc(-c5ncc(Cl)cn5)c(C)nc4N3)C2)c(F)cn1 [Example 144, (2R)-1-[(2S)-6-(5-chloropyrimidin-2-yl)-7-methyl-3,4-dihydro-1H-spiro[1,8-naphthyridine-2,3′-pyrrolidin]-1′-yl]-2-(5-fluoro-2-methoxypyridin-4-yl)propan-1-one], which Kb [2] is on record?
**A.** 8.5 nM

**Q.** Which Kb [2] does the source give for COc1cc([C@@H](C)C(=O)N2CC[C@@]3(CCc4cc(-c5ncc(C(F)(F)F)cn5)c(C)nc4N3)C2)c(F)cn1 [Example 145, (2R)-2-(5-fluoro-2-methoxypyridin-4-yl)-1-{(2S)-7-methyl-6-[5-(trifluoromethyl)pyrimidin-2-yl]-3,4-dihydro-1H-spiro[1,8-naphthyridine-2,3′-pyrrolidin]-1′-yl}propan-1-one] here?
**A.** 54 nM

**Q.** With COc1cc([C@@H](C)C(=O)N2CC[C@@]3(CCc4cc(-c5ncc(F)cn5)c(C)nc4N3)C2)c(F)cn1 [Example 146, (2R)-2-(5-fluoro-2-methoxypyridin-4-yl)-1-[(2S)-6-(5-fluoropyrimidin-2-yl)-7-methyl-3,4-dihydro-1H-spiro[1,8-naphthyridine-2,3′-pyrrolidin]-1′-yl]propan-1-one] as the compound, how does the Kb [2] read?
**A.** 1.2 nM

**Q.** How did the Kb [2] turn out when COc1cc([C@@H](C)C(=O)N2CC[C@@]3(CCc4cc(-c5nc6n(n5)CCC6(F)F)c(C)nc4N3)C2)c(F)cn1 [Example 147, (2R)-1-[(2S)-6-(7,7-difluoro-6,7-dihydro-5H-pyrrolo[12-b][1,2,4]triazol-2-yl)-7-methyl-3,4-dihydro-1H-spiro[1,8-naphthyridine-2,3′-pyrrolidin]-1′-yl]-2-(5-fluoro-2-methoxypyridin-4-yl)propan-1-one] was run?
**A.** 0.57 nM

**Q.** COc1cc([C@@H](C)C(=O)N2CC[C@@]3(CCc4cc(-c5cnsc5)c(C)nc4N3)C2)c(F)cn1 [Example 150, (2R)-2-(5-fluoro-2-methoxypyridin-4-yl)-1-[(2S)-7-methyl-6-(1,2-thiazol-4-yl)-3,4-dihydro-1H-spiro[1,8-naphthyridine-2,3′-pyrrolidin]-1′-yl]propan-1-one] was tested. Which Kb [2] did it give?
**A.** 9 nM
